# Assay results as given in ChEMBL document CHEMBL3271981, “Potential histamine H2-receptor antagonists. 3. Methylhistamines” (J Med Chem, 1976).
# Calls of active or inactive are those of the source. The rule behind the calls is not given here.
# How the values were obtained:
# [1] = target: Histamine H1 receptor (Cavia porcellus) (UniProt P31389); test: In vitro agonist activity at histamine H1 receptor in guinea pig ileum assessed as contractile response relative to histamine in presence of atropine; type: tissue-based
# Histamine H1 receptor (Cavia porcellus), sequence (P31389 whole entry): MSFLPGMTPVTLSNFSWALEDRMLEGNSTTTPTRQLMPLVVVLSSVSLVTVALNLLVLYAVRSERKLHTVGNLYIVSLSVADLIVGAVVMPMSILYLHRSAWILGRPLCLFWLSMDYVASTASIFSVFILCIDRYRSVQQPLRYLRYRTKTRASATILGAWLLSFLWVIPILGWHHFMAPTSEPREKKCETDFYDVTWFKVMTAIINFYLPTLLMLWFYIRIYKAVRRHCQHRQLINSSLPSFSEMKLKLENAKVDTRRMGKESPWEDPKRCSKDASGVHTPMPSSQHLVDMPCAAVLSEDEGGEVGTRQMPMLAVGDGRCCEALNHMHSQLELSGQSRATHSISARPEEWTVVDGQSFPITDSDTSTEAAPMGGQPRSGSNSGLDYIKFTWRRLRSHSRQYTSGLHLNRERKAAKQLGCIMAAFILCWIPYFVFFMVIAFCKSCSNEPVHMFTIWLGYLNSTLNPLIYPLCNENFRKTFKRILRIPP
# [2] = system: Rattus norvegicus; test: In vivo agonist activity at histamine H2 receptor in iv dosed anesthetized rat assessed as stimulation of gastric acid secretion relative to histamine; type: functional, Stomach
# [3] = system: Rattus norvegicus; test: In vivo antagonist activity at histamine H2 receptor in anesthetized rat assessed as inhibition of histamine-stimulated gastric acid secretion up to 256 umol/kg, iv; type: functional, organism-based; conditions: Stomach
# [4] = Retardation factor of the compound using MeOH-NH4OH-H2O at ratio of 6:1:1 as solvent system by thin layer chromatography; type: physicochemical
# [5] = Retardation factor of the compound using EtOCH2CH2OH-HCl(11N)-H2O at ratio of 8:1:1 as solvent system by thin layer chromatography; type: physicochemical; conditions: buffer
# [6] = system: Rattus norvegicus; test: In vivo agonist activity at histamine H2 receptor in anesthetized rat assessed as stimulation of gastric acid secretion at 486 uml/kg, iv; type: functional, organism-based; conditions: Stomach
Compound,Activity [1] [%],Activity [2] [%],Activity [3],Rf [4],Rf [5],Activity [6]
Cc1ncc(CCN)[nH]1.Cl,16.5,2,–,–,–,–
CC(N)Cc1cnc[nH]1.Cl (stereo not given),0.36,0.8,inactive,–,–,–
Cc1ncc(CCN(C)C)[nH]1.Cl,16.8,1.4,–,–,–,–
Cl.Cl.Cn1cnc(CCN)c1 [N-METHYLHISTAMINE DIHYDROCHLORIDE],0.5,–,inactive,–,–,–
NCCc1c[nH]cn1 [HISTAMINE],–,–,–,0.52,0.7,–
Cl.Cn1cncc1CCN,< 0.01,<0.2,inactive,0.63,0.56,–
Cc1nc[nH]c1CCN.Cl,0.23,39,–,0.56,0.7,–
CNCCc1[nH]cnc1C.Cl,0.16,8.2,–,0.51,0.7,–
CC(CN)c1cnc[nH]1.Cl (stereo not given),0.83,0.4,inactive,–,–,–
Cc1nc[nH]c1CCN(C)C.Cl,0.1,3,–,0.72,0.57,–
CNCCc1cnc[nH]1.Cl,72,74,–,0.46,0.68,–
CN(C)CCc1cnc[nH]1.Cl,44,19,–,–,–,–
CC(C)(CN)c1cnc[nH]1,< 0.001,–,inactive,–,–,inactive
